Tested on: DSS induced ulcerative colitis in mice
Test: DSS induced ulcerative colitis in mice
Type: in vivo
Parameters: key to Total stool scores: sum of shape (1-3) and bleeding (1-3) levels; normal = 1 each; Colon length: unit not given here
Conditions: for Colon length / Colon weight / Effect on blood stool and loose stool compared with model group: day 9; for Colon weight compared with model group: P<0.05
Procedure: Molecular weight of DSS dextran sodium sulfate: 36,000 to 50,000, From MP Biomedical Company.
Preparation of molding agent: preparation of 3.5% DSS: 49 g DSS plus 1,400 mL high-temperature sterilized water.
Source of SPF male C57BL/6 mice: Beijing Weitong Lihua Experimental Animal Technology Co., Ltd. • Animal age at the beginning of the experiment: 6 to 8 weeks; • Animal weight at the beginning of the experiment: 22 to 25 g; • Adaptation time: 3 to 5 days;
The mice were divided into groups according to their weight, 10 mice in each group. The mice were administrated once a day by gavage (or blank) according to the following Table 4.
Animals were given 3.5% DSS solution for free drinking water modeling (the day of modeling was recorded as day 1), and the modeling agent was replaced once every two days for 7 consecutive days, and then (day 8) 3.5% DSS was replaced with ordinary drinking water for another 1 day.
• Preparation of solvent 1: 0.66 mL DMSO, 1.32 mL Solutol and 11.22 mL Saline were mixed to prepare 13.2 mL of solvent 1; • Preparation of solvent 2: 0.3 mL DMSO, 0.6 mL Solutol and 5.1 mL Saline were mixed to prepare 6 mL of solvent 2; • Preparation of solution of compound of Example 3: 39.6 mg of compound of Example 3 was dissolved in 13.2 mL of solvent 1 to obtain the solution of compound 1 of Example 3, the solution 1 of compound of Example 3 was diluted with solvent 1 to prepare the solution of compound of Example 3 with concentrations of 2 mg/mL, 1 mg/mL, and 0.6 mg/mL; • Etrasimod solution: 6 mg of Etrasimod was dissolve in 6 mL of solvent 2 to obtain Etrasimod solution; • Ozanimod solution: 12 mg of […] was dissolved in 6 mL solvent 2 to obtain Ozanimod solution; • Note: Prepare once every two days, and store in refrigerator at 4° C.
Wherein, the purity of compound of Example 3 was 99.74%, Ozanimod and Etrasimod were prepared by the method described in Example 8, and the purities were 99.78% and 98.47% respectively.
The mouse stool was observed on its shape, bleeding condition every two days, and scored. Scoring criteria for stool condition: shape: normal (level 1), soft stool (level 2), and loose stool (level 3); traits: normal (level 1), faint redness (level 2), and bloody stool visible to the unaided eye (level 3).
After the last administration (8 consecutive days), the animals were dissected on the next day (day 9), the colon was separated, the whole colon was photographed, and the colon length was measured. Then the colon was cut longitudinally along the mesenteric side to remove the contents, which was weighed and observed on the integrity of the colonic mucosa. The colon was then fixed in 10% formalin.

[1] = 6 mg/kg oral gavage once a day for 8 days
[2] = 10 mg/kg oral gavage once a day for 8 days
[3] = 20 mg/kg oral gavage once a day for 8 days
[4] = 30 mg/kg oral gavage once a day for 8 days
[5] = Day 1, 10 mg/kg oral gavage once a day
[6] = Day 2, 10 mg/kg oral gavage once a day
[7] = Day 3, 10 mg/kg oral gavage once a day
[8] = Day 4, 10 mg/kg oral gavage once a day
[9] = Day 5, 10 mg/kg oral gavage once a day
[10] = Day 6, 10 mg/kg oral gavage once a day
[11] = Day 7, 6 mg/kg oral gavage once a day
[12] = Day 7, 10 mg/kg oral gavage once a day
[13] = Day 7, 20 mg/kg oral gavage once a day
[14] = Day 7, 30 mg/kg oral gavage once a day
[15] = Day 8, 6 mg/kg oral gavage once a day
[16] = Day 8, 10 mg/kg oral gavage once a day
[17] = Day 8, 20 mg/kg oral gavage once a day
[18] = Day 8, 30 mg/kg oral gavage once a day
[19] = Day 9, 6 mg/kg oral gavage once a day
[20] = Day 9, 10 mg/kg oral gavage once a day
[21] = Day 9, 20 mg/kg oral gavage once a day
[22] = Day 9, 30 mg/kg oral gavage once a day

## O=C(O)CCn1ccc2cc(OCc3ccc(C4CCCC4)c(C(F)(F)F)c3)cc(Cl)c21 [Compound of Example 3, 3-(7-chlorine-5-((4-cyclopentyl-3-(trifluoromethyl)benzyl)oxy)-1H-indole-1-yl)propionic acid]
[1]
  Colon length: 39.061 ± 1.17
  Colon weight: 0.164 ± 0.01 g
6 mg/kg
  Colon weight compared with model group: statistically significant difference compared with that of the model group
  Effect on blood stool and loose stool compared with model group: significantly improving blood stool and loose stool
[2]
  Colon length: 39.638 ± 0.76
  Colon weight: 0.164 ± 0.01 g
10 mg/kg
  Colon weight compared with model group: statistically significant difference compared with that of the model group
  Effect on blood stool and loose stool compared with model group: significantly improving blood stool and loose stool
20 mg/kg
  Colon length compared with model group: longer than that of the model group
  Colon weight compared with model group: statistically significant difference compared with that of the model group
  Effect on blood stool and loose stool compared with model group: significantly improving blood stool and loose stool
[3]
  Colon length: 44.892 ± 1.83
  Colon weight: 0.163 ± 0.01 g
30 mg/kg
  Colon length compared with model group: longer than that of the model group
  Effect on blood stool and loose stool compared with model group: significantly improving blood stool and loose stool
[4]
  Colon length: 41.311 ± 1.25
  Colon weight: 0.162 ± 0.01 g
Day 1, 6 mg/kg oral gavage once a day
  Weight: 21.3 ± 0.26 g
[5]
  Weight: 21.9 ± 0.2 g
Day 1, 20 mg/kg oral gavage once a day
  Weight: 21.2 ± 0.34 g
Day 1, 30 mg/kg oral gavage once a day
  Weight: 21.5 ± 0.17 g
Day 2, 6 mg/kg oral gavage once a day
  Weight: 21.5 ± 0.27 g
[6]
  Weight: 22.1 ± 0.2 g
Day 2, 20 mg/kg oral gavage once a day
  Weight: 21.7 ± 0.29 g
Day 2, 30 mg/kg oral gavage once a day
  Weight: 21.9 ± 0.17 g
Day 3, 6 mg/kg oral gavage once a day
  Weight: 21.1 ± 0.3 g
[7]
  Weight: 21.4 ± 0.32 g
Day 3, 20 mg/kg oral gavage once a day
  Weight: 21.5 ± 0.33 g
Day 3, 30 mg/kg oral gavage once a day
  Weight: 21.4 ± 0.34 g
Day 4, 6 mg/kg oral gavage once a day
  Weight: 20.9 ± 0.47 g
[8]
  Weight: 21.3 ± 0.46 g
Day 4, 20 mg/kg oral gavage once a day
  Weight: 21.8 ± 0.34 g
Day 4, 30 mg/kg oral gavage once a day
  Weight: 21.1 ± 0.4 g
Day 5, 6 mg/kg oral gavage once a day
  Weight: 21.1 ± 0.25 g
[9]
  Weight: 21.0 ± 0.6 g
Day 5, 20 mg/kg oral gavage once a day
  Weight: 21.5 ± 0.33 g
Day 5, 30 mg/kg oral gavage once a day
  Weight: 21.1 ± 0.39 g
Day 6, 6 mg/kg oral gavage once a day
  Weight: 20.5 ± 0.25 g
[10]
  Weight: 20.4 ± 0.45 g
Day 6, 20 mg/kg oral gavage once a day
  Weight: 20.3 ± 0.48 g
Day 6, 30 mg/kg oral gavage once a day
  Weight: 20.1 ± 0.58 g
[11]
  Total stool scores: 5.6 ± 0.17
  Weight: 19.2 ± 0.23 g
[12]
  Total stool scores: 5.7 ± 0.22
  Weight: 19 ± 0.46 g
[13]
  Total stool scores: 5.7 ± 0.21
  Weight: 19 ± 0.46 g
[14]
  Total stool scores: 5.4 ± 0.32
  Weight: 19.5 ± 0.52 g
[15]
  Total stool scores: 5.9 ± 0.11
  Weight: 18.1 ± 0.38 g
[16]
  Total stool scores: 5.7 ± 0.22
  Weight: 17.8 ± 0.4 g
[17]
  Total stool scores: 5.9 ± 0.11
  Weight: 17.4 ± 0.58 g
[18]
  Total stool scores: 5.6 ± 0.23
  Weight: 18.4 ± 0.51 g
[19]
  Total stool scores: 4.6 ± 0
  Weight: 16.3 ± 0.33 g
[20]
  Total stool scores: 4.8 ± 0.26
  Weight: 16.2 ± 0.3 g
[21]
  Total stool scores: 4.8 ± 0.31
  Weight: 16.5 ± 0.4 g
[22]
  Total stool scores: 4.6 ± 0.39
  Weight: 17.2 ± 0.48 g
Oral gavage for 8 consecutive days, 6-30 mg/kg
  Effect on colon atrophy: certain inhibitory effect on colon atrophy

## O=C(O)C[C@H]1CCc2c1[nH]c1ccc(OCc3ccc(C4CCCC4)c(C(F)(F)F)c3)cc21 [Etrasimod, reference compound]
[2]
  Colon weight: 0.169 ± 0.01 g
10 mg/kg
  Colon weight compared with model group: statistically significant difference compared with that of the model group
  Effect on blood stool and loose stool compared with model group: had not significant improvement
[5]
  Weight: 21.0 ± 0.26 g
[6]
  Weight: 21.6 ± 0.24 g
[7]
  Weight: 21.4 ± 0.25 g
[8]
  Weight: 21.7 ± 0.29 g
[9]
  Weight: 21.2 ± 0.27 g
[10]
  Weight: 20.5 ± 0.22 g
[12]
  Total stool scores: 6.0 ± 0
  Weight: 19.2 ± 0.26 g
[16]
  Total stool scores: 5.9 ± 0.11
  Weight: 18.0 ± 0.3 g
[20]
  Total stool scores: 5.6 ± 0
  Weight: 16.6 ± 0.26 g

From patent US12486229B2, “Indole derivative and application thereof” (SHANGHAI MEDICILON INC., priority 2020, dated 2025)
